Here are results for 28 molecules from patent publication US20210009542A1 (Calico Life Sciences LLC, priority 2018, published 2021).

Some results are limits rather than exact numbers.

In the assay the target is T1, His tagged PTPN2 (TC45) protein (Homo sapiens, UniProt P17706).
T1 construct: made in house
T1 sequence (P17706 with tags, fused parts or gaps isoform P17706-2): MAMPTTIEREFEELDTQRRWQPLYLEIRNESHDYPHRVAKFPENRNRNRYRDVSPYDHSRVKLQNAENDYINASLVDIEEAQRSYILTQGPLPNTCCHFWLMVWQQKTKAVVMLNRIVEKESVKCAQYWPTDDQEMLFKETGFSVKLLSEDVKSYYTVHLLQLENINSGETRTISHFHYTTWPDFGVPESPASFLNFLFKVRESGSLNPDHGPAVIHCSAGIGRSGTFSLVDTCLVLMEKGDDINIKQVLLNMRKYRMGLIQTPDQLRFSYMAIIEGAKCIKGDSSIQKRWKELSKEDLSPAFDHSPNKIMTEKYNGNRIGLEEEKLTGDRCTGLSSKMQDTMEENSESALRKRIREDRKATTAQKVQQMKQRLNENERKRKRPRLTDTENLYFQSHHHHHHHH
In words: Mobility shift assay (MSA) for potency of PTPN2 inhibitors. Conditions: read-out: PTPN2 MSA IC50. It counts as biochemical. The method, then: Compound activity was determined using in house His tagged PTPN2 (TC45) protein (SEQ ID NO: 1) in an in vitro enzymatic reaction. The enzymatic assay used to determine activity was a mobility shift assay using a LabChip EZ Reader by Caliper Life Sciences. The enzymatic reaction was carried out in assay buffer (50 mM HEPES pH 7.5, 1 mM EGTA, 10 mM EDTA, 0.01% Tween® 20, and 2 mM DTT). The compounds were dispensed on a white 384 well ProxiPlate™ (PerkinElmer Catalog #6008289) plate using the Labcyte Echo at varying concentrations (12 point, 1:3 dilution). The enzyme (at 0.5 nM) was incubated with compound for 10 minutes at room temperature. Then the substrate (phosphorylated insulin receptor probe sequence: ((OG488)-(NH—CH2—CH2—O—CH2—CH2—O—CH2—CO)-T-R-D-I-(PY)-E-T-D-Y-Y-R-K-K-NH2) (SEQ ID NO: 2) was added at […] to the plates and incubated for another 10 minutes at room temperature. Finally, a quench solution (water and 4-bromo-3-(2-oxo-2-propoxyethoxy)-5-(3-{[1-(phenylmethanesulfonyl)piperidin-4-yl]amino}phenyl)thiophene-2-carboxylic acid) was added to the plates, which were then run on the EZ Reader (excitation 488 nm, emission 530 nm) to measure % conversion (the amount of phosphorylated substrate which was de-phosphorylated by PTPN2). […] The % inhibition was then used to calculate the IC50 values.
What is called IC50 is the point on the concentration scale where inhibition reaches its midpoint. Take `O=C1CN(c2c(O)cc3ccc(OCC(F)(F)F)cc3c2F)S(=O)(=O)N1` [Compound 197, 5-[1-fluoro-3-hydroxy-7-(2,2,2-trifluoroethoxy)naphthalen-2-yl]-1λ^6,2,5-thiadiazolidine-1,1,3-trione]: the IC50 fell in the range of 1 to 10 nM.

`Cc1n[nH]c(C)c1COc1ccc2cc(O)c(N3CC(=O)NS3(=O)=O)c(F)c2c1` [Compound 318, 5-{7-[(3,5-dimethyl-1H-pyrazol-4-yl)methoxy]-1-fluoro-3-hydroxynaphthalen-2-yl}-1λ^6,2,5-thiadiazolidine-1,1,3-trione]: the IC50 is 1 to 10 nM.

Consider `O=C1CN(c2c(O)cc3ccc(C4CCCO4)cc3c2F)S(=O)(=O)N1` (stereo not shown) [Compound 190], for which the concentration for half-maximal inhibition (IC50) was 1 to 10 nM.

Regarding `O=C1CN(c2c(O)cc3ccc(NCC4CC4)cc3c2F)S(=O)(=O)N1` [Compound 202, 5-{7-[(cyclopropylmethyl)amino]-1-fluoro-3-hydroxynaphthalen-2-yl}-1λ^6,2,5-thiadiazolidine-1,1,3-trione], the IC50 lay within 1 to 10 nM.

For `O=C1CN(c2c(O)cc3ccc(OCCCn4cccn4)cc3c2F)S(=O)(=O)N1` [Compound 183, 5-{1-fluoro-3-hydroxy-7-[3-(H-pyrazol-1-yl)propoxy]naphthalen-2-yl}-1λ^6,2,5-thiadiazolidine-1,1,3-trione], the half-maximal inhibitory concentration (IC50) lay within 1 to 10 nM.

`CC(C)OCCNc1ccc2cc(O)c(N3CC(=O)NS3(=O)=O)c(F)c2c1` [Compound 172, 5-[1-fluoro-3-hydroxy-7-({2-[(propan-2-yl)oxy]ethyl}amino)naphthalen-2-yl]-1λ^6,2,5-thiadiazolidine-1,1,3-trione]: the IC50 was 1 to 10 nM.

Consider `O=C1CN(c2c(O)cc3ccc(CC4CCN(CC(F)(F)F)C4)cc3c2F)S(=O)(=O)N1` (stereo not shown) [Compound 251, 5-(1-fluoro-3-hydroxy-7-{[1-(2,2,2-trifluoroethyl)pyrrolidin-3-yl]methyl}naphthalen-2-yl)-1λ^6,2,5-thiadiazolidine-1,1,3-trione], for which the IC50 is 1 to 10 nM.

With `C[C@@H](O)CCCc1ccc2cc(O)c(N3CC(=O)NS3(=O)=O)c(F)c2c1` [Compound 151, 5-{1-fluoro-3-hydroxy-7-[(4R)-4-hydroxypentyl]naphthalen-2-yl}-1λ^6,2,5-thiadiazolidine-1,1,3-trione], the 50% inhibitory concentration (IC50) fell in the range of 1 to 10 nM.

As to `COCCNCCOc1ccc2cc(O)c(N3CC(=O)NS3(=O)=O)c(F)c2c1` [Compound 138, 5-(1-fluoro-3-hydroxy-7-{2-[(2-methoxyethyl)amino]ethoxy}naphthalen-2-yl)-1λ^6,2,5-thiadiazolidine-1,1,3-trione], the IC50 fell in the range of 1 to 10 nM.

For `CNCCCc1ccc2cc(O)c(N3CC(=O)NS3(=O)=O)c(F)c2c1` [Compound 139, 5-{1-fluoro-3-hydroxy-7-[3-(methylamino)propyl]naphthalen-2-yl}-1λ^6,2,5-thiadiazolidine-1,1,3-trione], the IC50 lay within 1 to 10 nM.

Consider `C[C@H](O)CCCc1ccc2cc(O)c(N3CC(=O)NS3(=O)=O)c(F)c2c1` [Compound 153, 5-{1-fluoro-3-hydroxy-7-[(4S)-4-hydroxypentyl]naphthalen-2-yl}-1λ^6,2,5-thiadiazolidine-1,1,3-trione], for which the IC50 lay in the range of 1 to 10 nM.

Consider `O=C1CN(c2c(O)cc3ccc(C4=CCN(CC(F)(F)F)CC4)cc3c2F)S(=O)(=O)N1` [Compound 275, 5-{1-fluoro-3-hydroxy-7-[1-(2,2,2-trifluoroethyl)-1,2,3,6-tetrahydropyridin-4-yl]naphthalen-2-yl}-1λ^6,2,5-thiadiazolidine-1,1,3-trione], for which the IC50 is 1 to 10 nM.

With `O=C1CN(c2c(O)cc3ccc(OCCNC4CC4)cc3c2F)S(=O)(=O)N1` [Compound 142, 5-{7-[2-(cyclopropylamino)ethoxy]-1-fluoro-3-hydroxynaphthalen-2-yl}-1λ^6,2,5-thiadiazolidine-1,1,3-trione], the IC50 was in the range of 1 to 10 nM.

For `COCc1ccc2cc(O)c(N3CC(=O)NS3(=O)=O)c(F)c2c1` [Compound 229, 5-[1-fluoro-3-hydroxy-7-(methoxymethyl)naphthalen-2-yl]-1λ^6,2,5-thiadiazolidine-1,1,3-trione], the concentration for half-maximal inhibition (IC50) fell in the range of 10 to 100 nM.

As for `CCNCCOc1ccc2cc(O)c(N3CC(=O)NS3(=O)=O)c(F)c2c1` [Compound 144, 5-{7-[2-(ethylamino)ethoxy]-1-fluoro-3-hydroxynaphthalen-2-yl}-1λ^6,2,5-thiadiazolidine-1,1,3-trione], the IC50 lay within 1 to 10 nM.

For `N#CCc1ccc2cc(O)c(N3CC(=O)NS3(=O)=O)c(F)c2c1` [Compound 228, [8-fluoro-6-hydroxy-7-(1,1,4-trioxo-1λ^6,2,5-thiadiazolidin-2-yl)naphthalen-2-yl]acetonitrile], the concentration for half-maximal inhibition (IC50) fell in the range of 1 to 10 nM.

Turning to `COCCS(=O)(=O)N1CC=C(c2ccc3cc(O)c(N4CC(=O)NS4(=O)=O)c(F)c3c2)C1` [Compound 286, 5-{1-fluoro-3-hydroxy-7-[1-(2-methoxyethanesulfonyl)-2,5-dihydro-1H-pyrrol-3-yl]naphthalen-2-yl}-1λ^6,2,5-thiadiazolidine-1,1,3-trione], the half-inhibitory concentration (IC50) was under 1 nM.

On to `O=C(CNc1ccc2cc(O)c(N3CC(=O)NS3(=O)=O)c(F)c2c1)NCCC1CC1` [Compound 268, N-(2-cyclopropylethyl)-2-{[8-fluoro-6-hydroxy-7-(1,1,4-trioxo-1λ^6,2,5-thiadiazolidin-2-yl)naphthalen-2-yl]amino}acetamide], for which the IC50 is 1 to 10 nM.

As for `COCC1(CCOc2ccc3cc(O)c(N4CC(=O)NS4(=O)=O)c(F)c3c2)CC1` [Compound 160, 5-(1-fluoro-3-hydroxy-7-{2-[1-(methoxymethyl)cyclopropyl]ethoxy}naphthalen-2-yl)-1λ^6,2,5-thiadiazolidine-1,1,3-trione], the IC50 fell in the range of 1 to 10 nM.

As to `O=C1CN(c2c(O)cc3ccc(CO)cc3c2F)S(=O)(=O)N1` [Compound 185, 5-[1-fluoro-3-hydroxy-7-(hydroxymethyl)naphthalen-2-yl]-1λ^6,2,5-thiadiazolidine-1,1,3-trione], the 50% inhibitory concentration (IC50) was 1 to 10 nM.

With `CNC(=O)CCCOc1ccc2cc(O)c(N3CC(=O)NS3(=O)=O)c(F)c2c1` [Compound 269, 4-{[8-fluoro-6-hydroxy-7-(1,1,4-trioxo-1λ^6,2,5-thiadiazolidin-2-yl)naphthalen-2-yl]oxy}-N-methylbutanamide], the IC50 lay in the range of 1 to 10 nM.

In the case of `O=C1CN(c2c(O)cc3ccc(CNCC4CC4)cc3c2F)S(=O)(=O)N1` [Compound 161, 5-(7-{[(cyclopropylmethyl)amino]methyl}-1-fluoro-3-hydroxynaphthalen-2-yl)-1λ^6,2,5-thiadiazolidine-1,1,3-trione], the 50% inhibitory concentration (IC50) lay within 10 to 100 nM.

For `CS(=O)(=O)N1CCC(Oc2ccc3cc(O)c(N4CC(=O)NS4(=O)=O)c(F)c3c2)CC1` [Compound 284, 5-(1-fluoro-3-hydroxy-7-{[1-(methanesulfonyl)piperidin-4-yl]oxy}naphthalen-2-yl)-1λ^6,2,5-thiadiazolidine-1,1,3-trione], the IC50 fell in the range of 1 to 10 nM.

For the molecule `O=C1CN(c2c(O)cc3ccc(OCc4cn[nH]c4)cc3c2F)S(=O)(=O)N1` [Compound 133, 5-{1-fluoro-3-hydroxy-7-[(1H-pyrazol-4-yl)methoxy]naphthalen-2-yl}-1λ6,2,5-thiadiazolidine-1,1,3-trione], the half-inhibitory concentration (IC50) is 1 to 10 nM.

Consider `CC(C)NCCOc1ccc2cc(O)c(N3CC(=O)NS3(=O)=O)c(F)c2c1` [Compound 145, 5-(1-fluoro-3-hydroxy-7-{2-[(propan-2-yl)amino]ethoxy}naphthalen-2-yl)-1λ^6,2,5-thiadiazolidine-1,1,3-trione], for which the IC50 was 10 to 100 nM.

Regarding `Cc1n[nH]c(C)c1-c1ccc2cc(O)c(N3CC(=O)NS3(=O)=O)c(F)c2c1` [Compound 319, 5-[7-(3,5-dimethyl-1H-pyrazol-4-yl)-1-fluoro-3-hydroxynaphthalen-2-yl]-1λ^6,2,5-thiadiazolidine-1,1,3-trione], the half-inhibitory concentration (IC50) is 1 to 10 nM.

Take `O=C1CN(c2c(O)cc3ccc(OCCC4CCCCC4)cc3c2F)S(=O)(=O)N1` [Compound 320, 5-[7-(2-cyclohexylethoxy)-1-fluoro-3-hydroxynaphthalen-2-yl]-1λ^6,2,5-thiadiazolidine-1,1,3-trione]: the IC50 was under 1 nM.

With `O=C1CN(c2c(O)cc3ccc(C4=CCN(S(=O)(=O)c5ccoc5)C4)cc3c2F)S(=O)(=O)N1` [Compound 312, 5-{1-fluoro-7-[1-(furan-3-sulfonyl)-2,5-dihydro-1H-pyrrol-3-yl]-3-hydroxynaphthalen-2-yl}-1λ^6,2,5-thiadiazolidine-1,1,3-trione], the IC50 is under 1 nM.
